Consider 12 molecules from patent US20220160617A1, “COMPOSITIONS AND METHODS FOR IMPROVING SKIN HEALTH AND FOR THE TREATMENT AND PREVENTION OF DISEASES, DISORDERS AND CONDITIONS ASSOCIATED WITH PATHOGENIC MICROBES” (DermBiont, Inc., priority 2019, published 2022).

The test system of experiment [1] is E. Coli ATCC25922. Particulars: cited from earlier work.
The test system of experiment [2] is Janthinobacterium lividum strains. The experiment in a line: Antibiotic MIC tests, sensitivity summary. It is filed as cell-based. How it is done: (§1) The antibiotic resistance profile and MICs tests were performed using Janthinobacterium lividum grown from cultures purified and grown in vegitone LB broth.
For experiment [3], the system named is Janthinobacterium lividum DB02378. The experiment in a line: Antibiotic MIC test. It is filed as cell-based. As to the method: as §1
Experiment [4] deals with Janthinobacterium lividum DB02473. The experiment in a line: Antibiotic MIC test. Format: cell-based. How it is done:
as §1

The test system of experiment [5] is Janthinobacterium lividum DB00121. The experiment in a line: Antibiotic MIC test. It is filed as cell-based. As to the method:
as §1

Experiment [6] deals with Janthinobacterium lividum strains. The experiment in a line: Internal antibiotic resistance test (BD BBL Sensi-Disc zone of inhibition). Particulars: all 5 strains; disc content per antibiotic. It is filed as cell-based. As to the method: One Janthinobacterium lividum colony of 3-day old grown in 50% BHI agar was mixed well in 1 ml of 1×PBS buffer, diluted 10× and 100×, respectively. 200 μl of diluted Janthinobacterium lividum cells were evenly plated onto R2A/BHI agar plates in triplicate in 150 mm petri dishes. Antibiotic discs (BD BBL Sensi-Disc antimicrobial susceptibility test discs) were dispensed using a Disc dispenser (BD BBL Sensi-Disc Designer Dispenser System, 12-Place). Plates were incubated for 2-3 days at room temperature and imaged at the end of incubation.
The sensitivity of Janthinobacterium lividum to antibiotics is reflected by a clear zone of inhibition of Janthinobacterium lividum cells surrounding the antibiotic discs. The zone of inhibition was measured using ImageJ and was transformed into cm for analysis.

For experiment [7], the system named is E. Coli ATCC25922. Nature of the experiment: Antibiotic MIC test. Format: cell-based.
For experiment [8], the system named is Janthinobacterium lividum (DBI001). The experiment in a line: Biolog Phenotype MicroArray: components enhancing growth of Janthinobacterium in media. Format: cell-based.
Experiment [9] concerns Janthinobacterium lividum DB00118. Nature of the experiment: Antibiotic MIC test. Format: cell-based. How it is done:
as §1

In experiment [10] the test system is fungal or bacterial pathogens. Format: cell-based. Particulars: components for enhancing function of human-derived Janthinobacterium lividum.
The mark [11] stands for this setting: Janthinobacterium lividum, DB02378.
[12] abbreviates: Janthinobacterium lividum, DB00121.

In brackets after ≈: the same amount, converted by molar mass. Read-outs that look alike come from different tables or passages of the source. Where a SMILES comes first, the peptide text is derived from it. Bridges are numbered along the chain shown (N, C = ends). [ ]: non-standard residue; d: D form. The star is where a group is joined. Ileψ(thiazoline)Cys = CC[C@H](C)[C@H](N)C1=N[C@H](C(=O)*)CS1; dOrn = NCCC[C@@H](N)C(=O)O Some results are limits rather than exact numbers.

Take `C[C@H]1[C@H](NC(=O)/C(=N\OC(C)(C)C(=O)O)c2csc(N)n2)C(=O)N1S(=O)(=O)O` [Aztreonam]: the “MIC, CLSI QC ranges” value in the experiment on E. Coli ATCC25922 [1] is 0.06 to 0.25 µg/mL. Moreover, in experiment [2], the “sensitivity of Janthinobacterium lividum strains to antibiotic” value is on record as “less sensitive”.
`CC[C@H](C)[C@H](N)C1=N[C@H](C(=O)N[C@@H](CC(C)C)C(=O)N[C@H](CCC(=O)O)C(=O)N[C@H](C(=O)N[C@H]2CCCCNC(=O)[C@H](CC(N)=O)NC(=O)[C@@H](CC(=O)O)NC(=O)[C@H](Cc3cnc[nH]3)NC(=O)[C@@H](Cc3ccccc3)NC(=O)[C@H]([C@@H](C)CC)NC(=O)[C@@H](CCCN)NC2=O)[C@@H](C)CC)CS1` [Bacitracin] ({Ileψ(thiazoline)Cys}-L[dE]IK[dOrn]I[dF]H[dD]N; lactam 4-C): in experiment [2], the “sensitivity of Janthinobacterium lividum strains to antibiotic” value is “resistant”.
Turning to `CO/N=C(\C(=O)N[C@@H]1C(=O)N2C(C(=O)[O-])=C(C[N+]3(C)CCCC3)CS[C@H]12)c1csc(N)n1` [Cefepime], the “MIC, CLSI QC ranges” value in the experiment with E. Coli ATCC25922 [1] was 0.016 to 0.12 µg/mL. Besides, the MIC (in general, the lowest concentration found to suppress growth) in experiment [3] (setting [11]) stood at 0.125 µg/mL (≈ 0.26 µM); in experiment [4] (Janthinobacterium lividum, DB02473), 0.125 µg/mL (≈ 0.26 µM); in experiment [5] (setting [12]), 0.125 µg/mL (≈ 0.26 µM).
With `O=C(N[C@H](CO)[C@H](O)c1ccc([N+](=O)[O-])cc1)C(Cl)Cl` [Chloramphenicol], the “sensitivity of Janthinobacterium lividum to antibiotic disc” value in experiment [6] was “sensitive”. For the same molecule, in the experiment on E. Coli ATCC25922 [1], the “MIC, CLSI QC ranges” value is 2 to 8 µg/mL. Moreover, in experiment [2], the “sensitivity of Janthinobacterium lividum strains to antibiotic” value was “less sensitive”.
Turning to `CCC[C@@H]1C[C@@H](C(=O)N[C@@H]([C@H]2O[C@H](SC)[C@H](O)[C@@H](O)[C@H]2O)[C@H](C)Cl)N(C)C1` [Clindamycin], in the experiment on E. Coli ATCC25922 [7] (Escherichia coli, read-out: MIC), the MIC was over 64 µg/mL.
For the molecule `OC[C@@H](O)[C@@H](O)[C@H](O)[C@H](O)CO` [D-Mannitol], the “improvement of growth of human-derived Janthinobacterium lividum” value in [8] was “improve the growth”.
For the molecule `C[C@H]1COc2c(N3CCN(C)CC3)c(F)cc3c(=O)c(C(=O)O)cn1c23` [Levofloxacin], inhibition of growth in experiment [5] (setting [12]) (MIC) required 0.125 µg/mL (≈ 0.346 µM).
Turning to `C[C@@H](O)[C@H]1C(=O)N2C(C(=O)O)=C(S[C@@H]3CN[C@H](C(=O)N(C)C)C3)[C@H](C)[C@H]12` [Meropenem], the “MIC, CLSI QC ranges” value in the experiment with E. Coli ATCC25922 [1] is 0.008 to 0.06 µg/mL. Also, the “sensitivity of Janthinobacterium lividum strains to antibiotic” value in experiment [2] is “less sensitive”.
`CN(C)c1ccc(O)c2c1C[C@H]1C[C@H]3[C@H](N(C)C)C(O)=C(C(N)=O)C(=O)[C@@]3(O)C(O)=C1C2=O` [Minocycline]: the minimum inhibitory concentration (MIC) in [9] (Janthinobacterium lividum, DB00118) worked out at 0.125 µg/mL (≈ 0.273 µM); in experiment [3] (setting [11]), 0.125 µg/mL (≈ 0.273 µM).
In the case of Amoxicillin clavulanate, the MIC was determined as 8 µg/mL in the experiment on E. Coli ATCC25922 [7]; 1 µg/mL in experiment [9] (strain DB00118); 1 µg/mL in [3] (strain DB02378); 1 µg/mL in experiment [4] (strain DB02473); 0.5 µg/mL in experiment [5] (strain DB00121). In experiment [2], the “sensitivity of Janthinobacterium lividum strains to antibiotic” value is listed as “less sensitive”.
Turning to Neomycin, the MIC in the experiment on E. Coli ATCC25922 [7] was 2 µg/mL; in [9] (strain DB00118) it was 2 µg/mL; in [3] (strain DB02378), 2 µg/mL; in [4] (strain DB02473), 2 µg/mL; in experiment [5] (strain DB00121), 1 µg/mL.
As for Tween 40, in experiment [10], the “Concentration Range of Efficacy” value lay within 2 to 20 mM. Further, in experiment [8], the “improvement of growth of human-derived Janthinobacterium lividum” value is “improve the growth”.
